The target of one experiment is T1, MOZ-KAT6A (Homo sapiens, UniProt Q92794, A567V).
T1 construct: encoding amino acid residues 507 to 778 (Uniprot Q92794-1) of human KAT6A; made in house; host or cells: E. coli BL21 DE3
The experiment in a line: Acetyltransferase biochemical assay (AlphaScreen), KAT6A. The settings on record: Table 2 (MOZ-KAT6A); 10 μM Acetyl coenzyme A, histone H3.1, 5 nM enzyme. (Bead proximity is the source of the signal in Alpha formats.)

In experiment [1] the test system is histone H3K14 acetylation (HBO1 mediated) in U2OS cells. As to the kind of experiment: Histone H3 Lysine 14 Acetylation Biomarker Assay (96 well, U2OS). The format is cell-based. To be noted: Homo sapiens, 24 h, Table 6, H3K14ac, 24 hours incubation, serum free medium. Here is the method: Compounds may be tested for their ability to inhibit acetylation of the histone H3K14 marker (which is HBO1 mediated) in the following assay:
The cell line U2OS was seeded at a density of 12,000 cells per well in 96 well optical quality tissue culture plates in RPMI medium and 10% foetal bovine serum, and allowed to adhere for 24 hours under standard culture conditions (37 degree Celsius, 5% CO2). At the end of this period the cells were washed with serum free medium. Compound dilutions prepared in DMSO were added to the serum free medium, with negative control wells reserved for treatment with DMSO only and positive controls receiving a potent inhibitor compound (e.g. Example 36 in WO2016/198507) at 10 μM concentration. After incubation for 24 hours, the cells were fixed with 3.7% formaldehyde in PBS for 20 minutes at room temperature, washed with phosphate buffer saline containing 0.1% Tween 20 and blocked with Odyssey blocking buffer (LI-COR, Lincoln, Nebr.) containing 0.1% TritonX100. Anti-H3K14ac specific antibody (Cell Signalling Technologies) in Odyssey blocking buffer containing 0.1% Tween 20 was added and incubated for 14 hours at 4 degree Celsius. After washing, a secondary antibody labelled with Alexa647 dye (LifeTechnologies) and Hoechst 33342 (1 μg/mL, SigmaAldrich) were added for 1 hour incubation. Plates were washed and read on a PerkinElmer Phenix high content imaging platform. Using a Columbus image analysis pipeline, individual nuclei were located by Hoechst 33342 stain and the acetylation level was calculated from the Alexa647-related intensity in the same area. The resulting mean intensity per cell was directly converted to percent inhibition relative to controls on the same plate and the data fitted against a four-parameter logistic model to determine the 50% inhibitory concentration (IC50).

Experiment [2] addresses T2, QKF-KAT6B (Homo sapiens, UniProt Q8WYB5).
T2 construct: purchased SignalChem K315-381BG
The experiment in a line: Revised Acetyltransferase Biochemical Assay, KAT6B. To be noted: 8 nM KAT6B, 1 μM AcCoA, 100 nM histone H3.1, 90 min. From the text:
KAT6B was obtained from SignalChem, catalog ID: K315-381BG

Experiment [3] deals with T3, TIP60-KAT5 (Homo sapiens, UniProt Q92993).
T3 construct: encoding amino acid residues 2 to 461 (Uniprot Q92993-2) of human KAT5 isoform; made in house; host or cells: E. coli BL21 DE3
T3 sequence (Q92993 2-461 isoform Q92993-2): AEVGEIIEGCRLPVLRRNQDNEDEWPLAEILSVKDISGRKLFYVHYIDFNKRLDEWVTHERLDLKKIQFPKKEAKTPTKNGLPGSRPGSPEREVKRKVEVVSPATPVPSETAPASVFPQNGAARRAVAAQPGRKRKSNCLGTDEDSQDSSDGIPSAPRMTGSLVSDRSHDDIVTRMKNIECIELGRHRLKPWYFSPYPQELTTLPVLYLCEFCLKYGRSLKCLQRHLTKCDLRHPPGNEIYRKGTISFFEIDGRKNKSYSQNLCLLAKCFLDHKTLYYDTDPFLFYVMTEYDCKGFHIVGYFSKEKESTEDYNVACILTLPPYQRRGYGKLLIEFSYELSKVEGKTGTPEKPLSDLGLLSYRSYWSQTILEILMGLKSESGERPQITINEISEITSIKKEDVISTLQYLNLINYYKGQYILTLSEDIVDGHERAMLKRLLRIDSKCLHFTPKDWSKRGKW
The experiment in a line: Acetyltransferase biochemical assay (AlphaScreen), KAT5. The settings on record: Table 1 (TIP60-KAT5); 0.4 μM Acetyl coenzyme A, histone H4, 10 nM enzyme.

Experiment [4] addresses T3, TIP60-KAT5. The experiment in a line: Revised Acetyltransferase Biochemical Assay, KAT5. The settings on record: 10 nM KAT5, 1 μM AcCoA, 100 nM histone H4, 90 min.
The target of experiment [5] is T2, QKF-KAT6B. As to the kind of experiment: Acetyltransferase biochemical assay (AlphaScreen), KAT6B. The settings on record: Table 5 (QKF-KAT6B); 0.4 μM Acetyl coenzyme A, histone H3.1, 8 nM enzyme.

T1 sequence (Q92794 507-778 A567V limits assumed): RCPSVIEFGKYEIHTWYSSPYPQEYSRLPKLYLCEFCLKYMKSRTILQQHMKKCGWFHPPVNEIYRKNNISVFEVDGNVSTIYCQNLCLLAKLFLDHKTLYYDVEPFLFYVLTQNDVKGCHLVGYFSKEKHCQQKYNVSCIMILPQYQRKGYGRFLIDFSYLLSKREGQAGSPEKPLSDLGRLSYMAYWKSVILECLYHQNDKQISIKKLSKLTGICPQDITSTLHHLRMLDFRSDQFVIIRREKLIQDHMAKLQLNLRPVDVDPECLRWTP
T2 sequence (Q8WYB5 whole entry): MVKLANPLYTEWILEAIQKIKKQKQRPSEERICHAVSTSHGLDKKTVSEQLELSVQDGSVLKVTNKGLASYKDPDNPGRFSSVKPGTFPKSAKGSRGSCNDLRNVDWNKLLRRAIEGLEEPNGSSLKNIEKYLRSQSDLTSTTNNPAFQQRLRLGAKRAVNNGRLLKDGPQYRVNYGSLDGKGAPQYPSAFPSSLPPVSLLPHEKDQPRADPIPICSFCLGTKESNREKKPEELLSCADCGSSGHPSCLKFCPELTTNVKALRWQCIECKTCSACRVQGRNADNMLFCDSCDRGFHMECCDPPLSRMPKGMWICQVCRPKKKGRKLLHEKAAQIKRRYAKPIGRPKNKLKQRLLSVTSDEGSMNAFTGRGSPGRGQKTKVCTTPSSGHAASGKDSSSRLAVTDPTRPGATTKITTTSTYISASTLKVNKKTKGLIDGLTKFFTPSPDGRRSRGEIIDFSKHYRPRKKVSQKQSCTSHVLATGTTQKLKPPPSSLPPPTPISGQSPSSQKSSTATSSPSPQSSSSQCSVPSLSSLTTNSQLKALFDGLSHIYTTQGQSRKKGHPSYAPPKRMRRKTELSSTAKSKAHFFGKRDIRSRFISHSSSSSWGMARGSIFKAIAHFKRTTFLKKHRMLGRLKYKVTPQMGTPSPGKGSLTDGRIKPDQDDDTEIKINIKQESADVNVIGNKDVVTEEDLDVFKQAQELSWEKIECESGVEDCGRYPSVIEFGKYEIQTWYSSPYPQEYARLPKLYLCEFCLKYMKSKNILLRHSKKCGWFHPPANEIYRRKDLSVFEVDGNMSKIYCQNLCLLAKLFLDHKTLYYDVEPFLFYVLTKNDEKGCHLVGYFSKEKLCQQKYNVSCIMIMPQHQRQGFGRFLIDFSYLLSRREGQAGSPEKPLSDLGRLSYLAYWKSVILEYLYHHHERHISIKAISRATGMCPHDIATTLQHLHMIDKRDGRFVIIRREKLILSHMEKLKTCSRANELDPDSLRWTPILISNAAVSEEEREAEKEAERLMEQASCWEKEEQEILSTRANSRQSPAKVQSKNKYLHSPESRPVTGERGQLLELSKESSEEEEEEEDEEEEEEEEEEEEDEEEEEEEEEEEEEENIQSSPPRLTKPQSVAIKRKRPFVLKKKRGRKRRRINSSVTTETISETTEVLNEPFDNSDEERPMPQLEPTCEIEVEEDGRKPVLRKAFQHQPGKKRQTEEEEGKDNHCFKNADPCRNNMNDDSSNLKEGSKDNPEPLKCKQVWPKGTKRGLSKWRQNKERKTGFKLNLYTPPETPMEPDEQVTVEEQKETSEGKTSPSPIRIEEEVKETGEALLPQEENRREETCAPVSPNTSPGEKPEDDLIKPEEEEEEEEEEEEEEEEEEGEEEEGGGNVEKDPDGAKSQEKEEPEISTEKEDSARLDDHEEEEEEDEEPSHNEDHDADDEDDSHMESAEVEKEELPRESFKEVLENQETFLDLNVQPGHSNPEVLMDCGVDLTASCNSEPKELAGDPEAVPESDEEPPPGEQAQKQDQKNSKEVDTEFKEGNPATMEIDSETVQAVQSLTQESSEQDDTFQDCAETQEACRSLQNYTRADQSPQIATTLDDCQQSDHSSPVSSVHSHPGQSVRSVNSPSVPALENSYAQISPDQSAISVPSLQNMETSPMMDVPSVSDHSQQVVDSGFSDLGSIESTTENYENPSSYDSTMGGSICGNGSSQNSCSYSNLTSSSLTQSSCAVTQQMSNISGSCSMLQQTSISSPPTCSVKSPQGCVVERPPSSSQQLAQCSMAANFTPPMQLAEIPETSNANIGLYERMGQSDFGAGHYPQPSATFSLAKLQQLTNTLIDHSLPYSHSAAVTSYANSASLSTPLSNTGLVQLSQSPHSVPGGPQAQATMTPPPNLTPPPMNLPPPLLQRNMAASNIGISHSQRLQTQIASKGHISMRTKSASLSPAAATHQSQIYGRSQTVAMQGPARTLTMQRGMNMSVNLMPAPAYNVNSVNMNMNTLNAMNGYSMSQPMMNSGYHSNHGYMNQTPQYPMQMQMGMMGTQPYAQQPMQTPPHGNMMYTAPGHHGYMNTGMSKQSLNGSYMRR

Consider `O=C(NCC(c1ccccc1)c1ncco1)C1=Nc2ccc(Br)cc2S(=O)(=O)N1` (centres unmarked) [Example 1, 7-Bromo-N-(2-(oxazol-2-yl)-2-phenylethyl)-2H-benzo[e][1,2,4]thiadiazine-3-carboxamide 1,1-dioxide], for which the IC50 (commonly the concentration that gives 50% inhibition) was determined as 24.1 nM on MOZ-KAT6A; 317 nM in experiment [1]; 60 nM against QKF-KAT6B [2]; 286 nM against TIP60-KAT5 [3]; 68 nM against TIP60-KAT5 [4].
`O=C(NCC(c1ccccc1)c1ncco1)C1=Nc2ccccc2S(=O)(=O)N1` (centres unmarked) [Example 46, N-(2-(oxazol-2-yl)-2-phenylethyl)-2H-benzo[e][1,2,4]thiadiazine-3-carboxamide 1,1-dioxide]: the IC50 on QKF-KAT6B [5] was 122 nM; against MOZ-KAT6A, 324 nM; in experiment [1] it was 8160 nM; on QKF-KAT6B [2], 589 nM; on TIP60-KAT5 [3], 9710 nM; against TIP60-KAT5 [4] it was 4050 nM.
Consider `O=C(NCCc1ccccc1-n1nccn1)C1=Nc2ccc(I)cc2S(=O)(=O)N1` [Example 60, N-(2-(2H-1,2,3-triazol-2-yl)phenethyl)-7-iodo-2H-benzo[e][1,2,4]thiadiazine-3-carboxamide 1,1-dioxide], for which the IC50 came to 1610 nM in experiment [1], 39 nM on QKF-KAT6B [2], 327 nM on TIP60-KAT5 [3] and 58 nM against TIP60-KAT5 [4].
Turning to `O=C(NCCc1ccccc1OC(F)F)C1=Nc2ccc(I)cc2S(=O)(=O)N1` [Example 91], the IC50 was found to be 594 nM against MOZ-KAT6A; 615 nM in experiment [1]; 350 nM against QKF-KAT6B [2]; 209 nM on TIP60-KAT5 [3]; 90 nM against TIP60-KAT5 [4].

For the origin of these results see patent US20210380548A1, “Fused [1,2,4]Thiadiazine Derivatives Which Act as KAT Inhibitors of the MYST Family” (CTxT Pty Limited, priority 2017, published 2021).
